Columns and labels:
[1] = target: T1, Recombinant ROCK1 (amino acids 1-477) (Homo sapiens, UniProt Q13464); test: ROCK inhibition assay, LANCE Ultra TR-FRET kinase assay; type: biochemical; conditions: at Km of ATP (table title); method: 1 mM ATP, 50 nM ULight-CREBtide substrate, 1 hour, room temperature
T1 construct: Recombinant ROCK1 (amino acids 1-477)
Method: (§1) Kinase IC50 was determined through an in vitro assay based on LANCE Ultra TR-FRET (Time-Resolved Fluorescence Resonance Energy Transfer) homogeneous technologies method (Perkin Elmer). Recombinant ROCK1 (amino acids 1-477) and ROCK2 (amino acids 5-554) proteins were purchased from Carna Biosciences and SignalChem. Compound activities were measured by Envision and IC50s were calculated. The assays were performed in white LUMITRAC™ 200 96 well half-area microplates from Greiner Bio-One. The kinase reaction buffer consisted of 50 mM HEPES pH 7.5, 1 mM EGTA, 10 mM MgCl2, 2 mM DTT and 0.01% Tween-20. Kinases were incubated with 50 nM (ULight-CREBtide) substrate in the presence of 1 mM (ROCK1) or 1 mM (ROCK2) of ATP. The kinase reaction was carried out for 1 hour before addition of a stopping buffer to a final of 10 mM EDTA and 0.6 nM of LANCE Ultra Europium anti-phospho-CREB (Ser133) antibody (PerkinElmer TRF0200) in LANCE detection buffer. All assay incubations were performed at room temperature, and the microplates were sealed with polyester film during that time. The reaction was incubated for 1 hour, and the signal was read in Envision in TR-FRET mode (excitation at 320 nm and emission at 615/665 nm).
(§2) As used herein, a way to describe potency of inhibitory activity (nM) is a value of inhibitory activity at 50% (IC50).

[2] = target: T2, Recombinant ROCK2 (amino acids 5-554) (Homo sapiens, UniProt O75116); test: as above; type: biochemical; conditions: at Km of ATP (table title); method: 1 mM ATP, 50 nM ULight-CREBtide substrate, 1 hour, room temperature
T2 construct: ROCK2 (amino acids 5-554)
Method: as §1, §2

T1 sequence (Q13464 1-477): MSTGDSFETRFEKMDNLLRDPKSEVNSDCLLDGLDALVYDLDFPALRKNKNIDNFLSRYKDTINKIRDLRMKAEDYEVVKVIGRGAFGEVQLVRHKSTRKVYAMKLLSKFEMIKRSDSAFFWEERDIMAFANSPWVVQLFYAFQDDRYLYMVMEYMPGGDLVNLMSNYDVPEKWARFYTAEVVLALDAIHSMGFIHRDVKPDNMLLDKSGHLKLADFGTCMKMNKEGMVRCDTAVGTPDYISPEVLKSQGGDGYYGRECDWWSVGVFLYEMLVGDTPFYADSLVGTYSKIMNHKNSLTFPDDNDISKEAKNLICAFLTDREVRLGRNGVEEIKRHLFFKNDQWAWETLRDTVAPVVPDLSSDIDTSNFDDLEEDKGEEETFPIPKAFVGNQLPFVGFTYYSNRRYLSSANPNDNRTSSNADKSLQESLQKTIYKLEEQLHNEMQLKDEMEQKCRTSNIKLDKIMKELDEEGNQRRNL
T2 sequence (O75116 5-554): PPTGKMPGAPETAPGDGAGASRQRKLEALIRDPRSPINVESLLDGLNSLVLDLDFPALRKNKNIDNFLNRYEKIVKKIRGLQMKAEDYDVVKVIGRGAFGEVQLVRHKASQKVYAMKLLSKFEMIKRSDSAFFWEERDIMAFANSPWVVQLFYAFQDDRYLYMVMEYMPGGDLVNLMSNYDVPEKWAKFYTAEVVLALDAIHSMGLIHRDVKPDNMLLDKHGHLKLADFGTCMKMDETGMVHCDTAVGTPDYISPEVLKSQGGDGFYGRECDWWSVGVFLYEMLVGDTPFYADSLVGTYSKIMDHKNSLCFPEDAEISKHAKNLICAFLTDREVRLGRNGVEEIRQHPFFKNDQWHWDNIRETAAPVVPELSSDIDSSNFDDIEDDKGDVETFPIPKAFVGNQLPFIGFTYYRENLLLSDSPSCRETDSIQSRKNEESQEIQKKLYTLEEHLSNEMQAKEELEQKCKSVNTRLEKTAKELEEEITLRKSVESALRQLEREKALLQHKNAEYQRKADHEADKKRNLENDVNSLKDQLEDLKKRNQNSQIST

Compound	IC50 [1] [nM]	IC50 [2] [nM]
COCCn1nc(C(=O)C2COc3ccccc3C2)c2ccc(-c3cn[nH]c3)cc21 (centres unmarked) [Compound 2-24, Chroman-3-yl-[1-(2-methoxyethyl)-6-(1H-pyrazol-4-yl)indazol-3-yl]methanone]	11 to 50	< 10
COc1ccc2c(c1)CC(C(=O)c1cn(CCO)c3cc(-c4c[nH]nc4Cl)ccc13)CO2 (centres unmarked) [Compound 2-15]	< 10	< 10
COc1[nH]ncc1-c1cc2c(cn1)c(C(=O)[C@H]1COc3ccc(Cl)cc3C1)cn2C[C@H](C)O [Compound 1-34]	51 to 500	11 to 50
CC(C)(O)Cn1cc(C(=O)C2COc3ccc(Cl)cc3C2)c2cnc(-c3cn[nH]c3F)nc21 (centres unmarked) [Compound 1-54]	11 to 50	< 10
C[C@@H](O)Cn1cc(C(=O)[C@@H]2COc3ccc(F)cc3C2)c2cnc(-c3cn[nH]c3F)nc21 [Compound 1-50]	< 10	< 10
C[C@H](O)Cn1cc(C(=O)[C@@H]2COc3ccc(Cl)cc3C2)c2cnc(-c3cn[nH]c3Cl)nc21 [Compound 1-46]	< 10	< 10
C[C@H](O)Cn1cc(C(=O)C2COc3ccc(Cl)cc3C2)c2cnc(-c3cn[nH]c3Cl)cc21 (some centres unmarked) [Compound 1-7]	11 to 50	< 10
CC[C@H](O)Cn1cc(C(=O)C2COc3ccc(Cl)cc3C2)c2cnc(-c3cn[nH]c3Cl)cc21 (some centres unmarked) [Compound 1-35]	51 to 500	11 to 50
O=C(c1cn(CCO)c2cc(-c3c[nH]nc3Cl)cnc12)C1COc2ccc(Cl)cc2C1 (centres unmarked) [Compound 1-5]	51 to 500	11 to 50
CC(C)(O)Cn1cc(C(=O)C2COc3ccc(Cl)cc3C2)c2cnc(-c3cn[nH]c3Cl)nc21 (centres unmarked) [Compound 1-57]	< 10	< 10
COc1n[nH]cc1-c1ccc2c(C(=O)C3COc4ccc(Cl)cc4C3)cn(C[C@@H](C)O)c2c1 (some centres unmarked) [Compound 1-44]	11 to 50	11 to 50
COc1[nH]ncc1-c1cc2c(cn1)c(C(=O)C1COc3ccc(Cl)cc3C1)cn2CCN(C)C (centres unmarked) [Compound 1-60, (6-chlorochroman-3-yl)(1-(2-(dimethylamino)ethyl)-6-(5-methoxy-1H-pyrazol-4-yl)-1H-pyrrolo[3,2-c]pyridin-3-yl)methanone metanesulfonic acid]	< 10	< 10
COc1n[nH]cc1-c1ccc2c(C(=O)[C@@H]3COc4ccc(Cl)cc4C3)cn(CC(C)O)c2c1 (some centres unmarked) [Compound 1-42]	11 to 50	< 10
COc1n[nH]cc1-c1ccc2c(C(=O)C3COc4ccc(F)cc4C3)nn(CCO)c2c1 (centres unmarked) [Compound 2-27]	11 to 50	< 10
COc1n[nH]cc1-c1ccc2c(C(=O)c3coc4ccccc34)nn(CCO)c2c1 [Compound 2-32]	> 501	51 to 500
O=C(c1cn(CCO)c2cc(-c3cn[nH]c3)ccc12)C1COc2ccc(F)cc2C1 (centres unmarked) [Compound 2-7]	< 10	< 10
C[C@@H](O)Cn1cc(C(=O)[C@@H]2COc3ccc(Cl)cc3C2)c2cnc(-c3cn[nH]c3Cl)cc21 [Compound 1-10]	11 to 50	< 10
COc1n[nH]cc1-c1ccc2c(C(=O)C3COc4ccc(Cl)cc4C3)nn(C[C@@H](C)O)c2c1 (some centres unmarked) [Compound 2-34]	51 to 500	11 to 50
COc1ccc2c(c1)OCC(C(=O)c1cn(CCO)c3cc(-c4cn[nH]c4)ccc13)C2 (centres unmarked) [Compound 2-8]	51 to 500	51 to 500
COc1ccc2c(c1)C[C@H](C(=O)c1cn(C[C@H](C)O)c3cc(-c4cn[nH]c4F)ncc13)CO2 [Compound 1-26]	< 10	< 10
O=C(c1cn(CCO)c2cc(-c3c[nH]nc3F)ccc12)C1COc2ccc(Cl)cc2C1 (centres unmarked) [Compound 2-16]	11 to 50	< 10
O=C(c1cn(CCO)c2cc(-c3cn[nH]c3)ccc12)C1COc2ccc(Cl)cc2O1 (centres unmarked) [Compound 2-13]	51 to 500	11 to 50
CC(O)Cn1cc(C(=O)[C@@H]2COc3ccc(Cl)cc3C2)c2ccc(-c3c[nH]nc3Cl)cc21 (some centres unmarked) [Compound 1-40]	11 to 50	< 10
COc1[nH]ncc1-c1ncc2c(C(=O)C3COc4ccc(F)cc4C3)cn(CC(C)(C)O)c2n1 (centres unmarked) [Compound 1-52]	51 to 500	11 to 50
COc1n[nH]cc1-c1ccc2c(C(=O)C3(C)COc4ccccc4O3)nn(CCO)c2c1 (centres unmarked) [Compound 2-31]	51 to 500	51 to 500
CC(C)(O)Cn1cc(C(=O)C2COc3ccc(Cl)cc3C2)c2cnc(-c3c[nH]nc3Cl)cc21 (centres unmarked) [Compound 1-16]	11 to 50	< 10

Compound	IC50 [1] [nM]	IC50 [2] [nM]
O=C(c1cn(CCO)c2cc(-c3cn[nH]c3)ccc12)C1COc2ccc(Cl)cc2C1 (centres unmarked) [Compound 2-2, (6-Chlorochroman-3-yl)-[1-(2-hydroxyethyl)-6-(1H-pyrazol-4-yl)indol-3-yl]methanone]	< 10	< 10
O=C(c1cn(CC2CC(O)C2)c2cc(-c3cn[nH]c3Cl)ncc12)C1COc2ccc(Cl)cc2C1 (centres unmarked) [Compound 1-38]	11 to 50	< 10
O=C(c1cn(CCO)c2cc(-c3cn[nH]c3)ccc12)C1COc2ccc(F)cc2O1 (centres unmarked) [Compound 2-9]	11 to 50	< 10
COc1n[nH]cc1-c1ccc2c(C(=O)C3COc4ccc(F)cc4C3)cn(CCO)c2c1 (racemic) [Compound 2-20]	11 to 50	11 to 50
O=C(c1cn(CCO)c2cc(-c3c[nH]c4ncccc34)ccc12)C1COc2ccccc2C1 (centres unmarked) [Compound 2-5]	51 to 500	11 to 50
C[C@H](O)Cn1cc(C(=O)[C@@H]2COc3ccc(Cl)cc3C2)c2cnc(-c3cn[nH]c3Cl)cc21 [Compound 1-9]	11 to 50	< 10
O=C(c1nn(CCO)c2cc(-c3c[nH]nc3C(F)(F)F)ccc12)C1COc2ccc(F)cc2C1 (centres unmarked) [Compound 2-26]	51 to 500	51 to 500
CC(O)Cn1cc(C(=O)[C@@H]2COc3ccc(Cl)cc3C2)c2ccc(-c3c[nH]nc3F)cc21 (some centres unmarked) [Compound 1-41]	11 to 50	< 10
C[C@H](O)Cn1cc(C(=O)[C@@H]2COc3ccc(Cl)cc3C2)c2cnc(-c3cn[nH]c3F)cc21 [Compound 1-30]	11 to 50	< 10
C[C@@H](O)Cn1cc(C(=O)C2COc3ccc(Cl)cc3C2)c2cnc(-c3cn[nH]c3F)nc21 (some centres unmarked) [Compound 1-47]	11 to 50	< 10
COc1ccc2c(c1)CC(C(=O)c1cn(CC(C)(C)O)c3cc(-c4cn[nH]c4F)ncc13)CO2 (centres unmarked) [Compound 1-28]	< 10	< 10
O=C(c1nn(CCO)c2cc(-c3cn[nH]c3)ccc12)C1COc2ccccc2C1 (centres unmarked) [Compound 3-2]	11 to 50	< 10
C[C@@H](O)Cn1cc(C(=O)[C@@H]2COc3ccc(F)cc3C2)c2cnc(-c3cn[nH]c3F)nc21 [Compound 1-51]	< 10	< 10
COc1n[nH]cc1-c1ccc2c(C(=O)C3COc4ccc(Cl)cc4C3)nn(CC(C)O)c2c1 (centres unmarked) [Compound 2-33]	51 to 500	11 to 50
CC(C)(O)Cn1cc(C(=O)[C@@H]2COc3ccc(Cl)cc3C2)c2cnc(-c3cn[nH]c3F)cc21 [Compound 1-31]	< 10	< 10
COc1n[nH]cc1-c1ccc2c(C(=O)C3COc4ccc(Cl)cc4C3)nn(CC#N)c2c1 (centres unmarked) [Compound 2-29]	> 501	51 to 500
CC[C@H](O)Cn1cc(C(=O)C2COc3ccc(Cl)cc3C2)c2cnc(-c3cn[nH]c3F)cc21 (some centres unmarked) [Compound 1-36]	51 to 500	11 to 50
CC(C)(O)Cn1cc(C(=O)[C@@H]2COc3ccc(Cl)cc3C2)c2cnc(-c3cn[nH]c3F)nc21 [Compound 1-55]	< 10	< 10
O=C(c1cn(CCO)c2cc(-c3cn[nH]c3)ccc12)C1COc2cc(Cl)c(Cl)cc2O1 (centres unmarked) [Compound 2-12]	51 to 500	51 to 500
COc1[nH]ncc1-c1ncc2c(C(=O)C3COc4ccc(Cl)cc4C3)cn(CC(C)(C)O)c2n1 (centres unmarked) [Compound 1-58]	11 to 50	< 10
O=C(c1cn(CCO)c2cc(-c3c[nH]nc3Cl)ncc12)C1COc2ccc(F)cc2C1 (centres unmarked) [Compound 1-13]	11 to 50	< 10
C[C@@H](O)Cn1cc(C(=O)C2COc3ccc(Cl)cc3C2)c2cnc(-c3c[nH]nc3Cl)cc21 (some centres unmarked) [Compound 1-8]	11 to 50	< 10
O=C(c1cn(CCO)c2nc(-c3c[nH]nc3Cl)ccc12)C1COc2ccc(F)cc2C1 (centres unmarked) [Compound 1-3]	11 to 50	< 10
COc1[nH]ncc1-c1cc2c(cn1)c(C(=O)[C@@H]1COc3ccc(Cl)cc3C1)cn2C[C@H](C)O [Compound 1-33]	11 to 50	< 10
COCCn1nc(C(=O)[C@@H]2COc3ccccc3O2)c2ccc(-c3cn[nH]c3)cc21 [Compound 2-25]	11 to 50	11 to 50
COc1ccc2c(c1)CC(C(=O)c1cn(C[C@H](C)O)c3cc(-c4cn[nH]c4Cl)ncc13)CO2 (some centres unmarked) [Compound 1-27]	< 10	< 10

From patent US20240368154A1 (GENOSCO Inc., priority 2023, published 2024)
